Results from patent US9573960B2, “Glioblastoma inhibiting compounds and their use” (Life & Brain GmbH, priority 2011, dated 2017).

Legend:
[1] = test system: four patient-specific primary GBM cultures; settings: 1 μM
Procedure: (§2) Before screening, cell number was titrated for each cell line separately to ensure that cell proliferation remained in a linear-exponential phase throughout the experiment. 24 hours after seeding 2−3×10^3 cells/well into laminin/poly-L-ornithine coated 96-well plates, primary cultures were treated with 2 nM, 1 μM or 10 μM of each compound (stock solution 10 mM in DMSO). As a reference we treated cells with 50 μM and 500 μM temozolomide (TMZ, SigmaAldrich, Taufkirchen, Germany; stock solution of 100 mM in DMSO). Control cells were treated with 0.5-0.01% DMSO. Six days after application, cell viability was determined using the AlamarBlue® assay according to the manufacturers recommendations (Invitrogen, Karlsruhe, Germany). Fluorescence was measured using an Infinite200 microplate reader (Tecan, Crailsheim, Germany) at Xex=540 nm and Xem=590 nm. Experiments were performed in triplicates for each sample.
(§3) To identify cytotoxic and cytostatic compounds, we conducted in vitro drug-screening assays in four different patient-specific primary GBM cultures (see Table 1 for basic characterization of research specimens).
(§4) The compound library was screened at three different concentrations (10 μM, 1 μM, 2 nM). The relative metabolic activity was determined after a 5-day incubation with compounds. […] For reference, we applied 50 μM (reported plasma peak concentration) and 500 μM of temozolomide (TMZ, as described in Beier et al., 2008), the current standard chemotherapeutic GBM drug to our cells. […] However, “hits” in the setting of a primary screening were defined as a reduction of the relative metabolic activity under the level of 50% of DMSO-treated control cells.

[2] = test system: patient-specific primary human glioblastoma cells (pGBMs); test: Pharmacodynamic analysis of GAA and GA, AlamarBlue (IMC50); format: cell-based; settings: for inhibition of the metabolic activity of pGBMs: FIG. 14A
Procedure: To validate the results obtained from primary screening, these compounds were purchased from independent suppliers (FIG. 13). Pharmacodynamic analysis was conducted by determining the concentrations that decreased the metabolic activity of pGBMs to 50% control levels (IMC50). […] For further analysis, pGBMs were collected at five days following single-dose in vitro application of the respective compound.
(§1) Considering the cellular and genetic diversity that characterizes GBM, we next investigated GAA's pharmacological effect in 17 pGBM samples derived from 11 patients (see Table 2 for list of samples and patient data). […] Next, pair-wise comparison of GAA-pharmacodynamics was performed in pGBMs to stratify results according to key clinical constellations (Bredel et al., 2011; Glas et al., 2010; Simpson et al., 2006; Weller et al., 2010). Glioblastoma samples derived from (i) the tumor center vs. periphery region of the same patient, (ii) primary vs. recurrent disease of the same patient, (iii) MGMT-promoter hypermethylated vs. unmethylated tissue, (iv) p53 wild type vs. p53 mutated samples, as well as from (v) NFKBIA wild type vs. NFKBIA deleted genotypes.
For pharmacodynamic analysis, 5×10^4 cells were plated in 12-well-plates at 24 hours before application of compound-series. […] Experiments were performed in triplicates. IMC50 was defined as the compound concentration that reduced the metabolic activity by 50% compared to control conditions and determined via data analysis in GraphPad Prism 4.0.

[3] = test system: self-renewing, multipotent cells among pGBMs; test: Neurosphere assay after GA or GAA pre-treatment; format: cell-based, human; settings: single pre-treatment, vital cells collected at day 5
Description: In a next series of experiments we aimed to determine the influence of the compounds on the activity of tumor-initiating cells (TICs). TICs embody a severe functional consequence of intra-tumor heterogeneity as, at least in human glioblastoma, it is anticipated that they are represented by a small subpopulation of stem-like, i.e. self-renewing and multipotent cells (e.g. Sties and Rowitch, 2008; Zhou et al., 2009). In previous work, we established their frequencies in the range from 0.25 to 1% among culture passage 5-10 pGBMs (see Glas et al., 2010). To estimate potential compound-induced alterations to the pool of self-renewing and multipotent cells in pGBMs, the neurosphere assay (NSA) was applied as recently described (Scheffler et al., 2005; Glas et al., 2010). Heterogeneous pGBM samples (#'s 046, 078, 106) were exposed to the compounds, vital cells were collected at day 5, and processed under non-adherent conditions in the NSA (neurosphere assay, see methods).
The neurosphere assay was performed to estimate the frequency of self-renewing clonogenic cells according to established protocols (Glas et al., 2010; Scheffler et al., 2005). Neurospheres were quantified at 21 days in culture, triturated to a single cell suspension, and re-plated for analysis of the secondary and tertiary neurospheres. […]

pGBMs (#046) = test: Orthotopic xenotransplantation of pre-treated pGBMs; format: in vivo, Rag2Il2rg−/− mice; settings: pGBMs pre-treated 5 days at IMC50, 10^6 cells into striatum, vs DMSO
Procedure: FIG. 18: Gambogig acid amide decreases the tumor-initiating potential of pGBMs. pGBMs (#046) were treated with IMC50 concentrations of the respective compounds for 5 days in vitro. […] surviving vital cells were subsequently collected and injected into the striatum of adult immunocompromised mice (n=5 for each experiment). (A) Kaplan-Meier curves show no significant survival advantage upon injection of pGBMs pre-treated with gambogic acid (dotted) vs. DMSO controls (solid).
Cells were harvested, counted and re-suspended in 0.1% DNase/PBS. Cellular viability was confirmed via trypan blue exclusion. 10^6 DMSO-control-, gambogic acid or gambogic acid amide-pretreated pGBMs were injected stereotactically into the striatum of 12 week old Rag2Il2rg^−/− mice (0.8 mm anterior, 2 mm lateral, 3 mm deep). Mice were monitored daily and euthanized upon presentation with signs of distress/neurological symptoms or significant weight loss. For subsequent histological analysis, brains were removed, cryoprotected, and serially cut on a cryostat (Leica) at 20 μm thickness. Every fifth section underwent routine H&E staining for histological analysis of tumor formation.

[4] = test system: CD133+ vs. CD133− pGBM cells; test: CD133+ vs CD133- pGBM cells, metabolic activity and cell confluency; format: cell-based, human; settings: IMC50, 5 days after single exposure
Description: FIG. 19: Preferred targeting of CD133^+ GBM cells by Gambogig acid amide. (A) FACS-based identification and sorting of CD133^+ subpopulations from pGBMs (#106, top; #058, bottom). Note the respective frequency of CD133^+ cells is indicated within the panel). (B) Relative metabolic activity and cell confluency of CD133-positive vs. CD133-negative pGBM cells determined at 5 days after single exposure of Gambogic acid (IMC50, top) and Gambogic acid amide (IMC50, bottom). Note the selective sensitivity of CD133^+ cells in response to application of Gambogic acid amide.
To further corroborate the cancer stem cell-specific inhibitory activity of GAA, we selected CD133-positive and -negative cell populations from pGBMs (FIG. 19). CD133^+ cells are known among glioblastoma samples to represent a minority of tumorigenic stem-like phenotypes (Singh et al., 2004). Comparative evaluation of the inhibitory effects induced by GAA and GA on CD133^+ vs. CD133^− pGBM cells confirmed our assumption.
For fluorescence-activated cell separation (FACS), cells were stained with CD133/2-PE or with CD133/2-APC (both 1:20; Miltenyi Biotech) and sorted on a BD FACS DiVa Cell Sorter (Becton Dickinson).

[5] = test system: LN229, T98G, U87, U138, and U373 cells; test: Pharmacodynamic analysis in commercial glioma/GBM cell lines; format: cell-based; settings: compared with pGBM IMC50's
Procedure: as §1
For pharmacodynamic analysis, 5×10^4 cells were plated in 12-well-plates at 24 hours before application of compound-series. AlamarBlue®-based analysis was conducted at 5 days post treatment. Experiments were performed in triplicates. IMC50 was defined as the compound concentration that reduced the metabolic activity by 50% compared to control conditions and determined via data analysis in GraphPad Prism 4.0.

[6] = test system: four patient-specific primary GBM cultures; test: cells; settings: Homo sapiens, read-out: cellular viability of pGBMs, control levels
Procedure: as §2, §3, §4

Row | SMILES | cellular viability of pGBMs, control levels [1] | inhibition of the metabolic activity of pGBMs [2] | time of induction of inhibitory activity ([2]; day 1, 2 or 5 following exposure, versus Gambogic acid) | IC50 ([2]; pGBM #106, day 5) | IC50 ([2]; pGBM #132, day 5) | inhibitory activity compared with GA (dose-response) ([2]; triplicate analysis for each sample) | frequency of self-renewing, multipotent cells (primary, secondary, tertiary spheres) [3] | survival of animals that received pre-treated pGBMs (pGBMs (#046)) | selective reduction of cell growth and viability among CD133+ vs CD133− cells [4] | inhibitory activity in commercial glioma/GBM cell lines [5] | viability at 1 µM [6]
1 | CC(C)=CCC[C@]1(C)C=Cc2c(O)c3c(c(CC=C(C)C)c2O1)O[C@]12C(=C[C@@H]4CC1C(C)(C)O[C@@]2(C/C=C(/C)C(N)=O)C4=O)C3=O [GAA, Gambogic acid amide] | below 50% | effectively and to a comparable degree | earlier time point | 514 nM | 78 nM | consistently at lower concentrations | considerably reduced frequency | significantly increased survival | significantly stronger reduction | Comparable results | 
2 | CC(C)=CCC[C@]1(C)C=Cc2c(O)c3c(c(CC=C(C)C)c2O1)O[C@]12C(=C[C@@H]4C[C@H]1C(C)(C)O[C@@]2(C/C=C(/C)C(=O)O)C4=O)C3=O [GA, Gambogic acid] |  | effectively and to a comparable degree |  |  |  |  | no GA-induced alteration | not evident | could not be revealed |  | < 50%
